Measured values: US20230123334A1, “AMINO LIPID COMPOUND, PREPARATION METHOD THEREFOR, AND APPLICATION THEREOF” (SHENZHEN SHENXIN BIOTECHNOLOGY CO., LTD., priority 2020, published 2023)

Test system: HEK293 cells
Assay: Preliminary screening as DNA vectors, GFP transfection of HEK293 cells
Type: cell-based
Conditions: amino lipid/DOPE liposome with 75 ng plasmid DNA (psin-EGFP-IRES-Puro); number of GFP-expressing cells divided by total nuclei (Hoechst)
Method in brief: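 First, amino lipid and DOPE were vortexed in sodium acetate buffer (pH 5.6) to form liposomes. Next, these were held with 75 ng EGFP plasmid at room temperature for 30 min. Finally, HEK293 cells were added, cultured at 37° C., Hoechst-stained, and GFP+/total nuclei scored by imaging.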

## CCCCCCCCCCSc1nc(NCCN2CCOCC2)nc(SCCCCCCCC)n1 [S8S10 D2]
  Absolute DNA transfection efficiency in HEK293 cells: 18.8%

## CCCCCCCCCCCCCCCNc1nc(NCCN2CCCCC2)nc(SCCCCCCCCCCC)n1 [S11N15 D4]
  Absolute DNA transfection efficiency in HEK293 cells: 9.0%

## CCCCCCCCCCCCCCCCCCSc1nc(NCCN2CCOCC2)nc(N(CCCCCCCCCCCC)CCCCCCCCCCCC)n1 [S18^2N12 D2]
  Absolute DNA transfection efficiency in HEK293 cells: 0.0%

## CCCCCCCCCCCCCCCCSc1nc(NCCCN2CCN(C)CC2)nc(SCCCCCCC)n1 [S7S16 D9]
  Absolute DNA transfection efficiency in HEK293 cells: 2.3%

## CCCCCCCCCCCCCCCCCCNc1nc(NCCN(CC)CC)nc(SCCCCCCCCCCCCCC)n1 [S14N18 D7]
  Absolute DNA transfection efficiency in HEK293 cells: 1.2%

## CCCCCCCCCCCCCCSc1nc(NCCCCCC)nc(NCCN2CCOCC2)n1 [S14N6 D2]
  Absolute DNA transfection efficiency in HEK293 cells: 18.8%

## CCCCCCCCCCCNc1nc(NCCN2CCCCC2)nc(SCCCCCCC)n1 [S7N11 D4]
  Absolute DNA transfection efficiency in HEK293 cells: 6.9%

## CCCCCCCCCCCCCCCCCCSc1nc(NCCCCCCCCCCCCCCCC)nc(NCCN2CCN(C)CC2)n1 [S18N16 D5]
  Absolute DNA transfection efficiency in HEK293 cells: 0.2%

## CCCCCCCCCCCCCCSc1nc(NCCN2CCCCC2)nc(SCCCCCC)n1 [S6S14 D4]
  Absolute DNA transfection efficiency in HEK293 cells: 12.0%

## CCCCCCCCCCSc1nc(NCCCCCCCC)nc(NCCN2CCCCC2)n1 [S10N8 D4]
  Absolute DNA transfection efficiency in HEK293 cells: 2.1%

## CCCCCCCCCCCCCCCNc1nc(NCCN2CCN(C)CC2)nc(SCCCCCCCCCCCCCC)n1 [S14N15 D5]
  Absolute DNA transfection efficiency in HEK293 cells: 0.4%

## CCCCCCCCCCCCCCCCSc1nc(NCCCCCCCCCCCCCCC)nc(NCC2CCN(C)CC2)n1 [S16N15 D10]
  Absolute DNA transfection efficiency in HEK293 cells: 0.2%

## CCCCCCCCCCSc1nc(NCCCCCCCC)nc(NCCCN(C)C)n1 [S10N8 D6]
  Absolute DNA transfection efficiency in HEK293 cells: 10.7%

## CCCCCCCCSc1nc(NCCCCCC)nc(NCC2CCN(C)CC2)n1 [S8N6 D10]
  Absolute DNA transfection efficiency in HEK293 cells: 0.5%

## CCCCCCCCCCCNc1nc(NCCN(C)C)nc(SCCCCCCCCC)n1 [S9N11 D1]
  Absolute DNA transfection efficiency in HEK293 cells: 35.3%

## CCCCCCCCCCCCSc1nc(NCCCCCCCCC)nc(NCCN(C)C)n1 [S12N9 D1]
  Absolute DNA transfection efficiency in HEK293 cells: 4.5%

## CCCCCCCCCCCCCNc1nc(NCCN2CCOCC2)nc(SCCCCCCCCCCCC)n1 [S12N13 D2]
  Absolute DNA transfection efficiency in HEK293 cells: 0.0%

## CCCCCCCSc1nc(NCCN2CCCC2)nc(SCCCCCCC)n1 [S7S7 D3]
  Absolute DNA transfection efficiency in HEK293 cells: 9.2%

## CCCCCCCCCCCCCCCSc1nc(NCCCCCCCCCCCC)nc(NCCN2CCN(C)CC2)n1 [S15N12 D5]
  Absolute DNA transfection efficiency in HEK293 cells: 5.7%

## CCCCCCCCCCCCCCSc1nc(NCCCCCCCC)nc(NCCN(C)C)n1 [S14N8 D1]
  Absolute DNA transfection efficiency in HEK293 cells: 8.9%

## CCCCCCCCCCCCCNc1nc(NCCN(CC)CC)nc(SCCCCCCCCCC)n1 [S10N13 D7]
  Absolute DNA transfection efficiency in HEK293 cells: 4.4%

## CCCCCCCCCCCCCNc1nc(NCCN2CCOCC2)nc(SCCCCCCCCC)n1 [S9N13 D2]
  Absolute DNA transfection efficiency in HEK293 cells: 11.1%

## CCCCCCCCCCCCNc1nc(NCCN2CCN(C)CC2)nc(SCCCCCCCCC)n1 [S9N12 D5]
  Absolute DNA transfection efficiency in HEK293 cells: 48.2%

## CCCCCCCCCCCCNc1nc(NCCCN2CCN(C)CC2)nc(SCCCCCC)n1 [S6N12 D9]
  Absolute DNA transfection efficiency in HEK293 cells: 38.8%

## CCCCCCCCCCCSc1nc(NCCN(CC)CC)nc(SCCCCCCC)n1 [S7S11 D7]
  Absolute DNA transfection efficiency in HEK293 cells: 10.4%

## CCCCCCCCCCCCCCCCNc1nc(NCCCN(C)C)nc(SCCCCCCC)n1 [S7N16 D6]
  Absolute DNA transfection efficiency in HEK293 cells: 26.2%

## CCCCCCCCCCCCCCCSc1nc(NCCCCCCCCCCCC)nc(NCCCN2CCN(C)CC2)n1 [S15N12 D9]
  Absolute DNA transfection efficiency in HEK293 cells: 3.3%

## CCCCCCCCCCCCCCCNc1nc(NCCN2CCN(C)CC2)nc(SCCCCCCCC)n1 [S8N15 D5]
  Absolute DNA transfection efficiency in HEK293 cells: 10.4%

## CCCCCCCCCCCCCCCCNc1nc(NCC2CCN(C)CC2)nc(SCCCCCC)n1 [S6N16 D10]
  Absolute DNA transfection efficiency in HEK293 cells: 19.7%

## CCCCCCCCCSc1nc(NCCCCCCCC)nc(NCCN2CCCCC2)n1 [S9N8 D4]
  Absolute DNA transfection efficiency in HEK293 cells: 27.3%

## CCCCCCCCCCCCN(CCCCCCCCCCCC)c1nc(NCCCN2CCOCC2)nc(SCCCCCCCCCCC)n1 [S11^2N12 D8]
  Absolute DNA transfection efficiency in HEK293 cells: 0.0%

## CCCCCCCCCSc1nc(NCCCN2CCN(C)CC2)nc(SCCCCCCCC)n1 [S8S9 D9]
  Absolute DNA transfection efficiency in HEK293 cells: 23.5%

## CCCCCCCCCCCCCCCCCCNc1nc(NCCN2CCCC2)nc(SCCCCCCCCCCCCCCCC)n1 [S16N18 D3]
  Absolute DNA transfection efficiency in HEK293 cells: 0.6%

## CCCCCCCCCCCCCNc1nc(NCCN2CCCC2)nc(SCCCCCCC)n1 [S7N13 D3]
  Absolute DNA transfection efficiency in HEK293 cells: 17.9%

## CCCCCCCCCCCNc1nc(NCCCN(C)C)nc(SCCCCCCCCC)n1 [S9N11 D6]
  Absolute DNA transfection efficiency in HEK293 cells: 55.4%

## CCCCCCCCCCCCCCCSc1nc(NCCCCCCCC)nc(NCCN2CCN(C)CC2)n1 [S15N8 D5]
  Absolute DNA transfection efficiency in HEK293 cells: 17.3%

## CCCCCCCCCCCCCCCCCCSc1nc(NCCCCCCCCCCCC)nc(NCCN2CCCCC2)n1 [S18N12 D4]
  Absolute DNA transfection efficiency in HEK293 cells: 0.3%

## CCCCCCCCCCCCCCCNc1nc(NCCN2CCOCC2)nc(SCCCCCCC)n1 [S7N15 D2]
  Absolute DNA transfection efficiency in HEK293 cells: 14.1%

## CCCCCCCCCCCCCCCCSc1nc(NCCCN2CCOCC2)nc(N(CCCCCCCCCCCC)CCCCCCCCCCCC)n1 [S16^2N12 D8]
  Absolute DNA transfection efficiency in HEK293 cells: 0.0%

## CCCCCCCCCCCCCCCCCCSc1nc(NCCCCCCCCCCCCCCC)nc(NCCN2CCN(C)CC2)n1 [S18N15 D5]
  Absolute DNA transfection efficiency in HEK293 cells: 0.0%

## CCCCCCCCCCCCSc1nc(NCCCCCCCCC)nc(NCCN2CCCC2)n1 [S12N9 D3]
  Absolute DNA transfection efficiency in HEK293 cells: 7.0%

## CCCCCCCCCCSc1nc(NCCCN(C)C)nc(SCCCCCCC)n1 [S7S10 D6]
  Absolute DNA transfection efficiency in HEK293 cells: 4.7%

## CCCCCCCCCCCCCCSc1nc(NCCCCCCCCCCC)nc(NCCCN2CCOCC2)n1 [S14N11 D8]
  Absolute DNA transfection efficiency in HEK293 cells: 2.2%

## CCCCCCCCCCCCCCCCCCSc1nc(NCCCCCCC)nc(NCCN2CCOCC2)n1 [S18N7 D2]
  Absolute DNA transfection efficiency in HEK293 cells: 3.2%

## CCCCCCCCCNc1nc(NCCN2CCN(C)CC2)nc(SCCCCCCC)n1 [S7N9 D5]
  Absolute DNA transfection efficiency in HEK293 cells: 22.0%

## CCCCCCCCCCCCCCCCSc1nc(NCCCCCCC)nc(NCCCN(C)C)n1 [S16N7 D6]
  Absolute DNA transfection efficiency in HEK293 cells: 12.9%

## CCCCCCCCCCCCCCCSc1nc(NCCCN2CCOCC2)nc(SCCCCCC)n1 [S6S15 D8]
  Absolute DNA transfection efficiency in HEK293 cells: 11.5%

## CCCCCCCCCCCCN(CCCCCCCCCCCC)c1nc(NCCCN2CCOCC2)nc(SCCCCCCCC)n1 [S8^2N12 D8]
  Absolute DNA transfection efficiency in HEK293 cells: 0.0%

## CCCCCCCCCCCCNc1nc(NCCN(CC)CC)nc(SCCCCCC)n1 [S6N12 D7]
  Absolute DNA transfection efficiency in HEK293 cells: 2.2%

## CCCCCCCCCCCCCCCCCCSc1nc(NCCCCCCCCCCCCC)nc(NCCN2CCN(C)CC2)n1 [S18N13 D5]
  Absolute DNA transfection efficiency in HEK293 cells: 0.0%

## CCCCCCCCCCCCCCCCSc1nc(NCCN(CC)CC)nc(N(CCCCCCCCCCCC)CCCCCCCCCCCC)n1 [S16^2N12 D7]
  Absolute DNA transfection efficiency in HEK293 cells: 0.1%

## CCCCCCCCCCCCCCCSc1nc(NCCCCCC)nc(NCCN(CC)CC)n1 [S15N6 D7]
  Absolute DNA transfection efficiency in HEK293 cells: 5.1%

## CCCCCCCCCCCCCCCCSc1nc(NCCCCCCCC)nc(NCCCN2CCOCC2)n1 [S16N8 D8]
  Absolute DNA transfection efficiency in HEK293 cells: 16.5%

## CCCCCCCCCCCCCCCNc1nc(NCCCN2CCOCC2)nc(SCCCCCCCCC)n1 [S9N15 D8]
  Absolute DNA transfection efficiency in HEK293 cells: 5.3%

## CCCCCCCCCCCCCCCCCCSc1nc(NCCCCCCCCCCC)nc(NCCN2CCN(C)CC2)n1 [S18N11 D5]
  Absolute DNA transfection efficiency in HEK293 cells: 6.3%

## CCCCCCCCCCCCCNc1nc(NCCCN2CCOCC2)nc(SCCCCCCCCCCC)n1 [S11N13 D8]
  Absolute DNA transfection efficiency in HEK293 cells: 0.9%

## CCCCCCCCCCCCCCSc1nc(NCCN(C)C)nc(N(CCCCCCCCCCCC)CCCCCCCCCCCC)n1 [S14^2N12 D1]
  Absolute DNA transfection efficiency in HEK293 cells: 0.3%

## CCCCCCCCCSc1nc(NCCN(CC)CC)nc(SCCCCCCC)n1 [S7S9 D7]
  Absolute DNA transfection efficiency in HEK293 cells: 14.5%

## CCCCCCCSc1nc(NCCN(C)C)nc(SCCCCCC)n1 [S6S7 D1]
  Absolute DNA transfection efficiency in HEK293 cells: 0.5%

## CCCCCCCCCCCCCCSc1nc(NCCN(C)C)nc(SCCCCCC)n1 [S6S14 D1]
  Absolute DNA transfection efficiency in HEK293 cells: 8.3%

## CCCCCCCCCCCCCNc1nc(NCCN2CCN(C)CC2)nc(SCCCCCCCCCCCC)n1 [S12N13 D5]
  Absolute DNA transfection efficiency in HEK293 cells: 1.5%

## CCCCCCCCSc1nc(NCCCN2CCN(C)CC2)nc(SCCCCCCC)n1 [S7S8 D9]
  Absolute DNA transfection efficiency in HEK293 cells: 10.2%

## CCCCCCCSc1nc(NCCN(CC)CC)nc(SCCCCCC)n1 [S6S7 D7]
  Absolute DNA transfection efficiency in HEK293 cells: 22.2%

## CCCCCCCCCCCSc1nc(NCCCCCCCC)nc(NCC2CCN(C)CC2)n1 [S11N8 D10]
  Absolute DNA transfection efficiency in HEK293 cells: 33.4%

## CCCCCCCCCCCCSc1nc(NCCCCCCCCCCC)nc(NCCN2CCOCC2)n1 [S12N11 D2]
  Absolute DNA transfection efficiency in HEK293 cells: 0.3%

## CCCCCCCCCSc1nc(NCCCN2CCN(C)CC2)nc(SCCCCCCC)n1 [S7S9 D9]
  Absolute DNA transfection efficiency in HEK293 cells: 17.1%

## CCCCCCCCCCCCCCCCCCNc1nc(NCCN2CCN(C)CC2)nc(SCCCCCCC)n1 [S7N18 D5]
  Absolute DNA transfection efficiency in HEK293 cells: 8.2%

## CCCCCCCCCCCCCNc1nc(NCC2CCN(C)CC2)nc(SCCCCCCC)n1 [S7N13 D10]
  Absolute DNA transfection efficiency in HEK293 cells: 54.2%

## CCCCCCCCCCCCCCCNc1nc(NCCCN2CCN(C)CC2)nc(SCCCCCCCCC)n1 [S9N15 D9]
  Absolute DNA transfection efficiency in HEK293 cells: 10.9%

## CCCCCCCCCCCCCCCNc1nc(NCC2CCN(C)CC2)nc(SCCCCCCCCCC)n1 [S10N15 D10]
  Absolute DNA transfection efficiency in HEK293 cells: 6.9%

## CCCCCCCCCCCCCCCCNc1nc(NCCN(C)C)nc(SCCCCCCCCCCCCCCC)n1 [S15N16 D1]
  Absolute DNA transfection efficiency in HEK293 cells: 1.3%
